According to patent publication US20110124742A1, “COMPOSITION AND METHOD OF ADIPOSE CELL DIFFERENTIATION INHIBITION” (NATIONAL YANG-MING UNIVERSITY, priority 2008, published 2011):

What was measured:
Assay type in all cases: cell-based
3T3-L1 adipose cell [1] = assay: MTT assay, cell viability of 3T3-L1 adipose cell; details: 0.25 mM (maximal amount)
3T3-L1 adipose cell [2] = assay: 3T3-L1 adipose cell differentiation assay, triglyceride content per unit protein; details: day 9, control 0.1% DMSO
Protocol: In the present invention, 3T3-L1 fibroblast cell is purchased from Bioresource collection and research center. Medium for 3T3-L1 fibroblast cell culture contains 10% (v/v) FBS, Dulbecco's modified Eagle's high-glucose medium containing 1% (v/v) penicillin (10000 U/ml) and streptomycin (10 mg/ml). Cell culture is performed in 37 C, 10% CO2 incubators. Subculture is performed at 80-90% cell confluence. After cell reaches 100% confluence, differentiation solution is used for differentiation. The complete differentiation takes 9 days. Differentiation solution contains 0.5 mM IBMX, 10 μg/ml insulin, 0.5 μM dexamethasone in 10% FBS DMEM. Two or three days after 3T3-L1 fibroblast cell reaching 100% confluence (day 0), the original 10% FBS DMEM is removed and differentiation solution is added. Replace cell culture medium at day 3 and day 6 with 10% FBS DMEM containing 10 μg/ml insulin. Harvest cells at day 9 of differentiation for cell morphology observation (Juan, C. C.; Chang, C. L.; Lai, Y. H.; Ho, L. T., Endothelin-1 induces lipolysis in 3T3-L1 adipocytes. Am. J. Physiol. Endocrinol. Metab. 2005, 288, E1146-52).
Mature 3T3-L1 adipose cell stores energy in the form of triglyceride of cell's oil drop. In order to study if plant essential oil is able to inhibit lipid accumulation in 3T3-L1 pre-adipose cell, we use cellular accumulated triglyceride content as an indicator of adipose cell differentiation. The examination method is as follows. Remove 3T3-L1 cell culture medium, wash cell with PBS for three times. Add protein lysis buffer (50 mM Tris-HCl, 150 mM NaCl, 0.5% sodium deoxycholate, 1% NP-40, 0.1% SDS) containing 10-fold diluted protease inhibitor into each well. Transfer mixture of scraped cells and buffer into microcentrifuge tube. Take 5 μl of homogenized cell mixture and 250 μl of reagent for reaction. The reaction is complete at room temperature in 1 hour, and then detects OD550 nm. Use OD value to calculate triglyceride concentration from a Merck multi-system calibrator generated standard curve. Determine triglyceride and protein concentration in each well, and the division of these two values (mg TG/mg protein) represents triglyceride content per unit protein in the cell. […]
Dilute Acorus essential oil (density 1.10 g/ml) to 25, 62.5, and 125 mg/ml with DMSO. Until cell growth reaches post confluence (day 0), diluted Acorus essential oil solution is added into differentiation solution in 1:1000 dilution into cell (final concentration is 25, 62.5, and 125 μg/ml). While replacing growth medium containing insulin at day 3 and day 6, replenish each concentration of Acorus essential oil in culture medium as well as the ones adding 0.1% DMSO as controls. The analysis at day 9 discovered that 25 μg/ml Acorus essential oil reduces triglyceride content per cell unit protein to 77% relative to its control. Acorus essential oil at 62.5 and 125 μg/ml essential oil reduces it to 55% and 20% relative to its control (FIG. 2a).
Ten ml of Acorus essential oil dissolved in hexane (5 ml essential oil and 5 ml hexane) is loaded into prepacked silica gel glass column and eluted by hydrophobicity (Table 2). Essential oil can be separated into 5 portions based on each component's hydrophobicity. Remove elution solvent by lypholizer, dissolve each component in 2 ml DMSO or methanol, and store it in glass vial. 3T3-L1 is used as a cell model, we add various fractions in DMSO or methanol at concentration of 50 μg/ml into cell differentiation medium and growth medium. At day 9 of complete differentiation, analyze triglyceride content per cell unit protein. […] Therefore, the second fraction has been chosen for further analysis.
After identifying the second fraction of Acorus essential oil as α-asarone and β-asarone, we further examine the effect of these two compounds on adipose cell differentiation inhibition. We dissolve α-asarone and β-asarone in DMSO to make concentration of 0.015, 0.03, 0.06, 0.13, and 0.25 M solution. […]

3T3-L1 adipose cell [3] = assay: Oil red staining of 3T3-L1 adipose cell; details: 0.03, 0.06, 0.13, 0.25 mM, day 9
Protocol: Acorus essential oil inhibition effect on cell differentiation can be visualized under microscope by oil red staining. It is performed as follows. Dissolve 0.03 g of Oil red O in 10 ml of isopropylalcohol as stock solution. Mix 2.4 ml of stock solution and 1.6 ml of PBS and filter it before staining. Remove medium from cells, add appropriate amount of filtered staining solution for 15 minutes, wash cell three times with PBS for 5 minutes each, and then add 4% paraformaldehyde for 15 minutes to fix cells, repeat wash step by PBS. Add 0.1% Triton X-100 for 30 seconds, and repeat wash step by PBS. Add appropriate amount of hematoxylin for 30 seconds followed by one last wash step by PBS. Observe the image under a microscope and record the image.

PPARγ [4] = assay: PPARγ mRNA expression by RT-PCR in 3T3-L1 cell; details: 3 days, GAPDH internal control
Protocol: (§1) RNA extraction: Remove 3T3-L1 cell medium directly from 10 cm petri dish, add 1 ml of Trizol reagent, and scrape off cells. Transfer cell and reagent mixture into a microcentrifuge tube. Add 200 μl chloroform in each tube and vortex for 15 seconds until it is clouded. Leave it on ice for 2-3 minutes at 4 C, spin it at 12000 rpm for 20 minutes. Transfer supernatant to another microcentrifuge tube, add equal amount of isopropylalcohol, mix and leave it on ice for 10 minutes. Spin it at 12000 rpm for 10 minutes at 4 C. After centrifugation, remove supernatant and save RNA pellet in the bottom. Add 75% cold ethanol, spin it at 7500 rpm for 10 minutes at 4 C. Remove ethanol after centrifugation and air dry the pellet until the edge is clear. Add appropriate amount of DEPC H2O to dissolve RNA pellet, and determine RNA concentration by OD260/OD280 nm with a spectrophotometer.
(§2) RT-PCR: Take 2 μg of RNA for reverse transcription reaction. Mix RNA, DEPC H2O and 0.25 μg random primer to make total volume of 12 μl. Keep it at 70 C for 10 minutes, and then leave it on ice. Add 4 μl of 5× first-strand buffer, 2 μl of 0.1 M dithiothreitol, 1 μl of 10 mM dNTP and 1 μl of SuperScript™ II reverse transcriptase 200 U/μl. Keep it at 42 C for 1.5 hours, and then heat it at 70 C for 15 minutes to stop reverse transcription. Take 1 μl of cDNA from reverse transcription, mix with 5 μl of 10×PCR buffer, 1 μl of 10 mM dNTP, 2 μl of primer, 40.5 μl of sterile water, and 0.5 μl of Taq DNA polymerase (1 U/μl) for PCR reaction. The SEQ ID NO: 1 to SEQ ID NO: 6 is listed from the top to bottom accordingly. PCR program is listed as follows: 95 C/5 min; 25˜30 cycles of 95 C/1 min, 55 C/1 min, 72 C/1 min; 72 C/10 min, and stop reaction at 4 C.
(§3) Because PPARγ and C/EBPα are early marker genes during adipose cell differentiation, these genes have been analyzed from cells harvested after 3 days of β-asarone addition. […]

C/EBPα [5] = assay: C/EBPα protein expression by western blot in 3T3-L1 cell; details: 3 days, α-tubulin internal control
Protocol: (§4) Western blot analysis: Prepare 12% SDS-PAGE as follows. Recipe of separating gel contains 2.5 ml of 1.5 M Tris-HCl pH 8.8, 100 μl of 10% SDS, 3 ml of acrylamide/bis (37.5:1; 40%), 4.35 ml RO water, 50 μl of 10% ammonium persulfate, and 5 μl of TEMED. Recipe of stacking gel contains 1.25 ml of 0.5 M Tris-HCl pH 6.8, 50 μl of 10% SDS, 0.065 ml of acrylamide/bis (37.5:1; 40%), 3.05 ml of RO water, 25 μl of APS and 5 μl of TEMED. Load same amount of protein in each well, and electrophoresis is performed under 100V for 2 hours. Prepare transfer buffer (10 mM CAPS-NaOH, 10% methanol, pH 11.0), and use methanol to rinse PVDF transfer membrane. After electrophoresis is complete, remove SDS-PAGE gel, cover the gel and PVDF membrane with transfer buffer rinsed 3 MM paper. Put it into transfer tank full of transfer buffer, electrophoresis under 500 mA for 1 hour. Take transfer membrane out, block it with 5% skim milk in TBST (20 mM Tris, 137 mM NaCl, 0.01% Tween-20), and wash it with TBST briefly. Add primary antibody for 2-hour reaction, wash membrane with TBST for three times, 15 minutes each. Add appropriate amount of secondary antibody for 1 hour, wash membrane with TBST for three times, 15 minutes each. In the end, evenly cover ECL on the transfer membrane, place membrane in the film cassette, and expose it to X-ray film. Develop the film for analysis.
(§5) Analyze cells of β-asarone supplement for 3 days by western analysis. The expression of PPARγ from cells treated with β-asarone at concentration of 0.03, 0.06, and 0.13 mM is 97%, 117%, and 111% relative to its normal differentiated control with no significant difference. When β-asarone reaches 0.25 mM, the expression of PPARγ reduces to 45% relative to its control (FIG. 12). In terms of another differentiation marker gene C/EBPα, the expression of C/EBPα treated with β-asarone at concentrations of 0.03 and 0.06 mM is 113% and 77% relative to its control with no statistical difference. However, when β-asarone reaches 0.13 mM and 0.25 mM, the expression of C/EBPα reduces to 43% and 33% relative to its control (FIG. 13).

PPARγ [6] = assay: PPARγ protein expression by western blot in 3T3-L1 cell; details: 3 days, α-tubulin internal control
Protocol: as §4, §5

C/EBPα [7] = assay: C/EBPα mRNA expression by RT-PCR in 3T3-L1 cell; details: 3 days, GAPDH internal control
Protocol: as §1, §2, §3

SMILES	cell viability rate relative to normal differentiated control (3T3-L1 adipose cell [1]) [%]	triglyceride content relative to normal differentiation control (3T3-L1 adipose cell [2]; 0.015 mM) [%]	triglyceride content relative to normal differentiation control (3T3-L1 adipose cell [2]; 0.03 mM) [%]	triglyceride content relative to normal differentiation control (3T3-L1 adipose cell [2]; 0.06 mM) [%]	triglyceride content relative to normal differentiation control (3T3-L1 adipose cell [2]; 0.13 mM) [%]	triglyceride content relative to normal differentiation control (3T3-L1 adipose cell [2]; 0.25 mM) [%]	oil red staining, red oil covered area (3T3-L1 adipose cell [3])	PPARγ mRNA expression relative to normal differentiated control (PPARγ [4]; 0.03 mM) [%]	PPARγ mRNA expression relative to normal differentiated control (PPARγ [4]; 0.06 mM) [%]	PPARγ mRNA expression relative to normal differentiated control (PPARγ [4]; 0.13 mM) [%]	C/EBPα protein expression relative to its control (C/EBPα [5]; 0.03 mM) [%]	C/EBPα protein expression relative to its control (C/EBPα [5]; 0.06 mM) [%]	C/EBPα protein expression relative to its control (C/EBPα [5]; 0.25 mM) [%]	PPARγ protein expression relative to normal differentiated control (PPARγ [6]; 0.03 mM) [%]	PPARγ protein expression relative to normal differentiated control (PPARγ [6]; 0.06 mM) [%]	PPARγ protein expression relative to normal differentiated control (PPARγ [6]; 0.13 mM) [%]	C/EBPα mRNA expression relative to normal differentiated control (C/EBPα [7]; 0.03 mM) [%]	C/EBPα mRNA expression relative to normal differentiated control (C/EBPα [7]; 0.06 mM) [%]	C/EBPα mRNA expression relative to normal differentiated control (C/EBPα [7]; 0.13 mM) [%]
C/C=C/c1cc(OC)c(OC)cc1OC (single isomer, unassigned) [α-asarone, reference compound]	78	107	106	99	104	105	–	–	–	–	–	–	–	–	–	–	–	–	–
C/C=C\c1cc(OC)c(OC)cc1OC (single isomer, unassigned) [β-asarone]	79	101	90	91	66	47	red oil covered area is decreasing	96	94	90	113	77	33	97	117	111	99	94	96
